Source: patent US11254705B2, “Cyclic peptide analogs and conjugates thereof” (Sirenas LLC, priority 2016, dated 2022)

What was measured:
[1] = system: BT-474 human mammary gland ductal carcinoma cells; test: Inhibition of BT-474 cell growth (Cell Titer-Glo, 72 h); format: cell-based; conditions: BT-474 cells, 72 hours of culture, Cell Titer-Glo luminescence
Description: (§1) BT-474 human mammary gland ductal carcinoma cells were seeded in a clear polystyrene 96-well microculture plate (Corning® Costar® 96-well flat bottom plate, Cat. #3997) in a total volume of 90 μL/well. After 24 hours of incubation in a humidified incubator at 37° C. with 5% CO2 and 95% air, 10 μL of 10×, serially diluted test agents in growth medium were added to each well (10 pt dose response curve, highest concentration 10 μM of test agent). After 72 hours of culture in a humidified incubator at 37° C., in an atmosphere of 5% CO2 and 95% air, the plated cells and Cell Titer-Glo® (Protnega G7571) reagents were brought to room temperature to equilibrate for 30 minutes. 100 μL of Cell Titer-Glo® reagent was added to each well. The plate was shaken for two minutes and then left to equilibrate for ten minutes. The media/Cell Titer-Glo® reagent was transferred to a white polystyrene 96-well microculture plate (Corning® Costar® 96-well flat bottom plate, Cat. #3917) before reading luminescence on a Tecan GENios microplate reader.
(§2) Percent inhibition of cell growth was calculated relative to untreated control wells. The IC50 value for the test agents was determined using Prism 6.05 by curve-fitting of the data using the following four parameter-logistic equation:
[formula] where Top is the maximal % of control absorbance, Bottom is the minimal % of control absorbance at the highest agent concentration, Y is the % of control absorbance, X is the agent concentration, IC50 is the concentration of agent that inhibits cell growth by 50% compared to the control cells, and n is the slope of the curve. […]

HCC1954 cells = test: Inhibition of HCC1954 cell growth (method analogous to BT-474); format: cell-based; conditions: Homo sapiens
Description: as §1, §2
[formula] where Top is the maximal % of control absorbance, Bottom is the minimal % of control absorbance at the highest agent concentration, Y is the % of control absorbance, X is the agent concentration, IC50 is the concentration of agent that inhibits cell growth by 50% compared to the control cells, and n is the slope of the curve.
Inhibitory response of test compounds against HCC1954 cells was determined using a method analogous to that used for BT-474 cells.

Compound | IC50 [1] | IC50 (HCC1954 cells)
C/C=C(\C)[C@H]1OC(=O)[C@@H](C)NC(=O)[C@H](C(C)CC)NC(=O)CN(C)C(=O)[C@@H](Cc2ccccc2)N(C)C(=O)[C@H](C)NC(=O)[C@@H](CC(C)C)OC(=O)/C(C)=C/C[C@H](OC(=O)NCCOCCO)[C@@H]1C (stereo partly drawn) [Compound 11, (2R,5S,8R,14S,17R,20S,21S,22S,E)-8-benzyl-20-((E)-but-2-en-2-yl)-14-((R)-see-butyl)-2-isobutyl-5,7,10,17,21,25-hexamethyl-3,6,9,12,15,18,26-heptaoxo-1,19-dioxa-4,7,10,13,16-pentaazacyclohexacos-24-en-22-yl (2-(2-hydroxyethoxy)ethyl)carbamate] | 1 nM | 1.64 nM
C/C=C(\C)[C@H]1OC(=O)[C@@H](C)NC(=O)[C@H]([C@H](C)CC)NC(=O)CN(C)C(=O)[C@@H](Cc2ccccc2)N(C)C(=O)[C@H](C)NC(=O)[C@@H](CC(C)C)OC(=O)/C(C)=C/C[C@H](OC(=O)NCCCCCO)[C@@H]1C [Compound 3, (2R,5S,8R,14S,17R,20S,21S,22S,E)-8-benzyl-20-((E)-but-2-en-2-yl)-14-((R)-sec-butyl)-2-isobutyl-5,7,10,17,21,25-hexamethyl-3,6,9,12,15,18,26-heptaoxo-1,19-dioxa-4,7,10,13,16-pentaazacyclohexacos-24-en-22-yl (5-hydroxypentyl)carbamate] | 0.0843 nM | 1.41 nM
C/C=C(\C)[C@H]1OC(=O)[C@@H](C)NC(=O)[C@H]([C@H](C)CC)NC(=O)CN(C)C(=O)[C@@H](Cc2ccc(Cl)cc2)N(C)C(=O)[C@H](C)NC(=O)[C@@H](CC(C)C)OC(=O)/C(C)=C/C[C@H](O)[C@@H]1C [Compound 15, (3R,6S,12R,15S,18R,24S,25S,26S,E)-26-((E)-but-2-en-2-yl)-6-((R)-sec-butyl)-12-(4-chlorobenzyl)-24-hydroxy-18-isobutyl-3,10,13,15,21,25-hexamethyl-1,19-dioxa-4,7,10,13,16-pentaazacyclohexacos-21-ene-2,5,8,11,14,17,20-heptaone] | 2.62 nM | 4.37 nM
C/C=C(\C)[C@H]1OC(=O)[C@@H](C)NC(=O)[C@H]([C@H](C)CC)NC(=O)CN(C)C(=O)[C@@H](Cc2ccccc2)N(C)C(=O)[C@H](C)NC(=O)[C@@H](CC(C)C)OC(=O)/C(C)=C/C[C@H](OC(=O)NCCCO)[C@@H]1C [Compound 1, (2R,5S,8R,14S,17R,20S,21S,22S,E)-8-benzyl-20-((E)-but-2-en-2-yl)-14-((R)-sec-butyl)-2-isobutyl-5,7,10,17,21,25-hexamethyl-3,6,9,12,15,18,26-heptaoxo-1,19-dioxa-4,7,10,13,16-pentaazacyclohexacos-24-en-22-yl (3-hydroxypropyl)carbamate] | 0.0811 nM | 0.457 nM
C/C=C(\C)[C@H]1OC(=O)[C@@H](C)NC(=O)[C@H]([C@H](C)CC)NC(=O)CN(C)C(=O)[C@@H](Cc2ccccc2)N(C)C(=O)[C@H](C)NC(=O)[C@@H](CC(C)C)OC(=O)/C(C)=C/C[C@H](OC(=O)NCCCCO)[C@@H]1C [Compound 2, (2R,5S,8R,14S,17R,20S,21S,22S,E)-8-benzyl-20-((E)-but-2-en-2-yl)-14-((R)-sec-butyl)-2-isobutyl-5,7,10,17,21,25-hexamethyl-3,6,9,12,15,18,26-heptaoxo-1,19-dioxa-4,7,10,13,16-pentaazacyclohexacos-24-en-22-yl (4-hydroxybutyl)carbamate] | 3.75 nM | 4.95 nM
C/C=C(\C)[C@H]1OC(=O)[C@@H](C)NC(=O)[C@H](C(C)CC)NC(=O)CN(C)C(=O)[C@@H](Cc2ccccc2)N(C)C(=O)[C@H](C)NC(=O)[C@@H](CC(C)C)OC(=O)/C(C)=C/C[C@H](OC(=O)NCCCCCCO)[C@@H]1C (stereo partly drawn) [Compound 4, (2R,5S,8R,14S,17R,20S,21S,22S,E)-8-benzyl-20-((E)-but-2-en-2-yl)-14-((R)-sec-butyl)-2-isobutyl-5,7,10,17,21,25-hexamethyl-3,6,9,12,15,18,26-heptaoxo-1,19-dioxa-4,7,10,13,16-pentaazacyclohexacos-24-en-22-yl(6-hydroxyhexyl)carbamate] | 0.523 nM | 3.21 nM
C/C=C(\C)[C@H]1OC(=O)[C@@H](C)NC(=O)[C@H](C(C)CC)NC(=O)CN(C)C(=O)[C@@H](Cc2ccccc2)N(C)C(=O)[C@H](C)NC(=O)[C@@H](CC(C)C)OC(=O)/C(C)=C/C[C@H](OC(=O)NCCCCCCCO)[C@@H]1C (stereo partly drawn) [Compound 5, (2R,5S,8R,14S,17R,20S,21S,22S,E)-8-benzyl-20-((E)-but-2-en-2-yl)-14-((R)-sec-butyl)-2-isobutyl-5,7,10,17,21,25-hexamethyl-3,6,9,12,15,18,26-heptaoxo-1,19-dioxa-4,7,10,13,16-pentaazacyclohexacos-24-en-22-yl(7-hydroxyheptyl)carbamate] | 0.329 nM | 1.11 nM
C/C=C(\C)[C@H]1OC(=O)[C@@H](C)NC(=O)[C@H]([C@H](C)CC)NC(=O)CN(C)C(=O)[C@@H](Cc2ccccc2)N(C)C(=O)[C@H](C)NC(=O)[C@@H](CC(C)C)OC(=O)/C(C)=C/C[C@H](OC(=O)N2CCN(CCO)CC2)[C@@H]1C [Compound 9, (2R,5S,8R,14S,17R,20S,21S,22S,E)-8-benzyl-20-((E)-but-2-en-2-yl)-14-((R)-sec-butyl)-2-isobutyl-5,7,10,17,21,25-hexamethyl-3,6,9,12,15,18,26-heptaoxo-1,19-dioxa-4,7,10,13,16-pentaazacyclohexacos-24-en-22-yl-4-(2-hydroxyethyl)piperazine-1-carboxylate] | 0.15 nM | 0.25 nM
C/C=C(\C)[C@H]1OC(=O)[C@@H](C)NC(=O)[C@H]([C@H](C)CC)NC(=O)CN(C)C(=O)[C@@H](Cc2ccccc2)N(C)C(=O)[C@H](C)NC(=O)[C@@H](CC(C)C)OC(=O)/C(C)=C/C[C@H](OC(=O)NCCCCCCCCO)[C@@H]1C [Compound 6, (2R,5S,8R,14S,17R,20S,21S,22S,E)-8-benzyl-20-((E)-but-2-en-2-yl)-14-((R)-sec-butyl)-2-isobutyl-5,7,10,17,21,25-hexamethyl-3,6,9,12,15,18,26-heptaoxo-1,19-dioxa-4,7,10,13,16-pentaazacyclohexacos-24-en-22-yl (8-hydroxyoctyl)carbamate] | 0.93 nM | 1.66 nM
C/C=C(\C)[C@H]1OC(=O)[C@@H](C)NC(=O)[C@H]([C@H](C)CC)NC(=O)CN(C)C(=O)[C@@H](Cc2ccccc2)N(C)C(=O)[C@H](C)NC(=O)[C@@H](CC(C)C)OC(=O)/C(C)=C/C[C@H](OC(=O)N(C)CCCCCCNC)[C@@H]1C [Compound 8, (2R,5S,8R,14S,17R,20S,21S,22S,E)-8-benzyl-20-((E)-but-2-en-2-yl)-14-((R)-sec-butyl)-2-isobutyl-5,7,10,17,21,25-hexamethyl-3,6,9,12,15,18,26-heptaoxo-1,19-dioxa-4,7,10,13,16-pentaazacyclohexacos-24-en-22-yl methyl(6-(methylamino)hexyl)carbamate] | 8.66 nM | 31.9 nM
C/C=C(\C)[C@H]1OC(=O)C(C)(C)NC(=O)[C@H]([C@H](C)CC)NC(=O)CN(C)C(=O)[C@@H](Cc2ccc(Cl)cc2)N(C)C(=O)[C@H](C)NC(=O)[C@@H](CC(C)C)OC(=O)/C(C)=C/C[C@H](O)[C@@H]1C [Compound 21, (6S,12R,15S,18R,24S,25S,26S,E)-26-((E)-but-2-en-2-yl)-6-((R)-sec-butyl)-12-(4-chlorobenzyl)-24-hydroxy-18-isobutyl-3,3,10,13,15,21,25-heptamethyl-1,19-dioxa-4,7,10,13,16-pentaazacyclohexacos-21-ene-2,5,8,11,14,17,20-heptaone] | – | 0.56 nM
